In article PMC6687188, “Novel lactate dehydrogenase inhibitors with in vivo efficacy against Cryptosporidium parvum” (PLoS Pathogens, 2019):

Each molecule was assayed against recombinant CpLDH protein (Cryptosporidium parvum, UniProt Q9GT92, F198L/K295E/R251K).

Compound	MEAN CpLDH INHIBITION (%)
CC1=C/C(=C2/N=C(N(C)C)SS2)C(C)=N1.[O-][Cl+3]([O-])([O-])O [NSC622690]	-0.50
Cn1ncc2cc3c(Nc4ccc(Cl)cc4)cccc3nc21 [NSC622732]	-35.66
Cc1cc(Cl)ccc1N1C(=O)C(=O)C(c2nc3ccccc3o2)C(=O)C1=O [NSC623051]	-30.82
COc1ccc2nc(NC(=O)C(=O)CC(=O)c3ccc(Cl)cc3)sc2c1 [NSC623059]	-31.35
O=C(Nc1ccccc1-c1nn(C(=S)Nc2ccccc2)c(=S)n(C(=S)Nc2ccccc2)c1=O)C(F)(F)F [NSC623093]	-49.57
CN(C)c1ccc(/C=c2/sc3nc(=O)c(-c4ccccc4NC(=O)C(F)(F)F)nn3c2=O)cc1 [NSC623095]	-151.18
CC(=O)OCc1c2ccccc2c(C)c2c1cc(F)c1ccccc12 [NSC623135]	-28.47
COC(=O)c1ccccc1OCc1cc(=O)oc2ccc(C)cc12 [NSC623637]	-23.29
CCOC(=O)C1=C(O)CSC1=Nc1ccc(N=C2SCC(O)=C2C(=O)OCC)cc1 [NSC623746]	-45.42
Cc1ccc(S(=O)(=O)SC/C=C/CSS(=O)(=O)c2ccc(C)cc2)cc1 [NSC624158]	-8.09
O=S(=O)(O)SC/C=C\CSS(=O)(=O)O.[Na+] [NSC624161]	-27.85
Cl.NCCSSCc1ccccc1CSSCCN [NSC624169]	-25.23
CC12CC(Br)(Br)C(=O)C3C1CCCC32 [NSC624358]	-23.30
Cc1[nH]c(=O)nc(N/N=C/c2ccc(Cl)cc2)c1C(=O)Nc1ccc(Cl)cc1 [NSC624947]	-0.76
C=CCOC1OC(CO[Si](C)(C)C(C)(C)C)C(OCc2ccccc2)C(OCc2ccccc2)C1OCc1ccccc1 (stereo not drawn) [NSC624953]	-142.25
CCN(CC)CCCNc1ncc(C)c2[nH]c3ccncc3c12.O=C(O)/C=C\C(=O)O [NSC625331]	-26.39
O=c1ncccn1C1OC(CO)C(O)C1F (stereo not drawn) [NSC625355]	-50.28
Fc1cccc(Cl)c1C1SCc2nc3ccccc3n21 (stereo not drawn) [NSC625483]	-18.24
Fc1cccc(F)c1C1SCc2nc3ccccc3n21 (stereo not drawn) [NSC625487]	-32.18
COc1ccc2cccc(C(=N)c3ccc(C)c4c3CCC4)c2c1 [NSC625590]	-11.59
Cc1ccccc1NC(=O)/C=N/O [NSC625639]	-116.71

Compound	MEAN CpLDH INHIBITION (%)
Cc1cc([N+](=O)[O-])ccc1Nc1cccc(Cl)c1C [NSC625641]	-6.68
C1CN(c2nnc(N3CCC3)nn2)C1 [NSC625748]	-117.70
COc1ccccc1Cc1nc(-c2ccccc2)nn(C2OC(COC(C)=O)C(OC(C)=O)C(OC(C)=O)C2OC(C)=O)c1=S (stereo not drawn) [NSC625873]	-25.33
COC1OC(COCc2ccc(Cl)cc2)C(OCc2ccc(Cl)cc2)C1O (stereo not drawn) [NSC626120]	-0.60
COc1ccc(C2C(C)C(=O)C(C)C(c3ccc(OC)cc3)N2N=O)cc1 (stereo not drawn) [NSC626734]	-0.09
COc1cc2c3c(c1OC)-c1cc4c(cc1CC3(C#N)N(C(=O)c1ccccc1)CC2)OCO4 (stereo not drawn) [NSC627666]	-0.33
Cc1ccc(S(=O)(=O)c2ccccc2[N+](=O)[O-])cc1 [NSC627708]	-13.84
N#CC1(C#N)C2C=CC(c3coc4cccc2c34)C1(C#N)C#N (stereo not drawn) [NSC629301]	-23.71
O=C1CCC(c2ccccc2)=NN1c1nc2ccccc2s1 [NSC629659]	-32.05
O=C1c2ccccc2C(=O)c2nc(-c3ccccc3)c(-c3ccccc3)nc21 [NSC629713]	-5.77
O=C(NCCCCCCCCNC(=O)c1cccc2ccccc12)c1cccc2ccccc12 [NSC629738]	-0.22
CC[C@@]1(O)C(=O)OCc2c1cc1n(c2=O)Cc2cc3c(N)cccc3nc2-1 [NSC629971]	-14.81
O=C(CCc1ccccc1)On1nnc2ccccc2c1=O [NSC630374]	-20.24
Cn1cnc([N+](=O)[O-])c1Sc1nnnn1-c1ccccc1 [NSC631152]	-45.89
Cn1cnc([N+](=O)[O-])c1Sc1nnc(-c2cccnc2)n1C [NSC631160]	-15.11
O=C1c2ccccc2C(=O)c2sc(Nc3ccc(Cl)c(Cl)c3)nc21 [NSC631521]	-0.12
O=C1c2ccccc2C(=O)c2sc(Nc3ccc(Cl)cc3)nc21 [NSC631529]	-18.60
N#CC1=C(N)Oc2c(ccc3cccnc23)C1c1ccccc1 (stereo not drawn) [NSC631583]	-36.52
COc1ccc(Cc2nc3ccccc3s2)cc1OC [NSC632233]	-7.14
Cc1ccc(/C=C2\CNC/C(=C\c3ccc(C)cc3)C2=O)cc1.Cl [NSC632839]	-15.78
C=CC(=O)N1C/C(=C\c2ccccc2)C(=O)/C(=C/c2ccccc2)C1 [NSC632841]	-21.11

Compound	MEAN CpLDH INHIBITION (%)
O=[N+]([O-])c1ccccc1S(=O)(=O)c1ccccc1[N+](=O)[O-] [NSC633001]	-15.73
O=C(NC(=O)c1c(Cl)nc2sccn12)Nc1ccc(Cl)cc1 [NSC633209]	-19.92
O=C1C(c2cnc3ccccc3n2)=C(O)c2ccccc21 [NSC634224]	-37.07
O=C(CC(=O)c1ccccc1)CC(O)(c1ccccc1)c1ccccc1 [NSC634232]	-33.26
Cc1c(Cl)cccc1NC(=O)CC1Sc2ccccc2NC1=O (stereo not drawn) [NSC634396]	-17.78
CCOC(=O)CCn1ncc(Cl)c(Cl)c1=O [NSC634471]	-23.23
COC(=O)C1=CC(=O)C(C(=O)Nc2ccc(OC)cc2)C(c2ccccc2)O1 (stereo not drawn) [NSC634473]	-29.85
CCc1cccc(CC)c1NC(=O)C(C#N)C1=C(Cl)C(=O)c2ccccc2C1=O (stereo not drawn) [NSC634503]	-5.79
Cn1c(=O)c2nc3sc4c(n3c2n(C)c1=O)C(=O)c1ccccc1C4=O [NSC634568]	-8.97
O=C1C=CC(CC(=O)c2ccc3ccccc3c2)O1 (stereo not drawn) [NSC634650]	-31.23
CC(=O)/C(=C\c1cccc([N+](=O)[O-])c1)C(=O)Nc1ccccc1C [NSC634658]	-26.76
O=S1(=O)OCCOS(=O)(=O)C1Cc1ccccc1 [NSC634863]	-18.12
[O-][S+]1c2ccccc2N=C(c2cccc3ccccc23)CC1c1cccc2ccccc12 (stereo not drawn) [NSC634926]	-0.08
CC1=C(C(=O)NCc2ccccc2)C(c2ccccc2O)C(C(=O)NCc2ccccc2)=C(C)N1 [NSC634928]	-21.25
C/C(NNC(=O)c1ccccc1O)=C1\C=Nc2ccccc2S1 [NSC635121]	0.03
COC(=O)c1[nH]c(=S)[nH]c(=O)c1-c1ccc(Cl)cc1 [NSC635140]	-15.60
O=C(c1ccccc1)C1OC12C(=O)Nc1c(Cl)cc(Cl)cc12 (stereo not drawn) [NSC635306]	-37.53
O=C(c1ccccc1)C(c1ccccc1)C1(O)C(=O)Nc2c(Cl)cc(Cl)cc21 (stereo not drawn) [NSC635312]	-41.63
Cc1c(Cl)ccc2c1NC(=O)C2(O)C(C(=O)c1ccccc1)c1ccccc1 (stereo not drawn) [NSC635321]	-39.51
O=C(CC1(O)C(=O)Nc2c(Cl)cc(Cl)cc21)c1ccc([N+](=O)[O-])cc1 (stereo not drawn) [NSC635326]	-38.78
O=C(CC1(O)C(=O)Nc2c(Cl)cc(Cl)cc21)c1cccc2ccccc12 (stereo not drawn) [NSC635328]	-47.14

Compound	MEAN CpLDH INHIBITION (%)
COC(=O)/C(=N\NC(=O)c1ccccc1O)C(C#N)c1ccccc1 (stereo not drawn) [NSC635337]	-28.29
CN1CCN(CCSC2Cc3cc(Cl)ccc3Sc3ccccc32)CC1 (stereo not drawn) [NSC635366]	-12.08
O=C(N=Nc1c(O)[nH]c2ccccc12)c1ccccc1O [NSC635404]	-38.57
Cc1cc(Cl)cc2c1NC(=O)C2(O)C(C(=O)c1ccccc1)c1ccccc1 (stereo not drawn) [NSC635435]	-63.48
O=C(CC1(O)C(=O)Nc2c(Cl)ccc(Cl)c21)c1ccc(Cl)cc1Cl (stereo not drawn) [NSC635436]	-79.39
O=C(CC1(O)C(=O)Nc2c(Cl)ccc(Cl)c21)c1ccc(Cl)cc1 (stereo not drawn) [NSC635437]	-7.08
O=C(CC1(O)C(=O)Nc2c(Cl)cc(Cl)cc21)c1cccc([N+](=O)[O-])c1 (stereo not drawn) [NSC635438]	-43.53
CC(=O)/C(C)=N/NC(=O)c1ccccc1O [NSC635441]	-52.88
NS(=O)(=O)c1nc2nc[nH]c(=O)c2[nH]1 [NSC635448]	-5.65
Cc1c(C(=O)C/C(=N/NC(=O)CC#N)C(N)=O)[n+](=O)c2ccccc2n1[O-] [NSC635542]	-10.72
Cc1c(C(=O)C/C(=N\O)C(=O)Nc2cc(Cl)c(Cl)cc2Cl)[n+](=O)c2ccccc2n1[O-] [NSC635544]	-233.40
O=[N+]([O-])c1cc(-c2nc(=S)[nH][nH]2)ccc1O [NSC635563]	-59.68
Cc1ccccc1OCC(COC(=O)Nc1ccccc1)OC(=O)Nc1ccccc1 (stereo not drawn) [NSC635824]	-3.02
COC(=O)C(=O)C(C(=O)Nc1cccc(C)c1C)C1Sc2ccccc2NC1=O (stereo not drawn) [NSC635833]	-26.59
CC1=NC(C(C)C)C(=O)O1 (stereo not drawn) [NSC635968]	-7.14
CC(C)(C)c1ccc(OC2CCO2)cc1 (stereo not drawn) [NSC635975]	-52.75
CC1CCCC(C(=O)/C(=C/c2cccc(Cl)c2)C(=O)C(=O)O)C1 (stereo not drawn) [NSC636084]	-20.56
Cc1ccc(NC(=O)C(=O)CC(=O)c2ccccc2)cc1C [NSC636126]	-16.52
Cc1ccccc1NC(=O)C(=O)C(C#N)c1ccccc1C (stereo not drawn) [NSC636132]	-58.66
O=C(/C=C/c1c(O)ccc2ccccc12)c1cccc(O)c1 [NSC636786]	-25.27
COc1ccc(C2=Nc3ccccc3SC(C)C2)cc1 (stereo not drawn) [NSC636817]	-5.00
